IC50 data for 38 compounds are collected here from patent US6881741B2 (ViroChem Pharma Inc., priority 2001, dated 2005).

In this assay the target is recombinant HCV NS5B (HCV RNA-dependent RNA polymerase) (Hepatitis C virus genotype 1b, UniProt P26663). The experiment in a line: biochemical.
[1] abbreviates: HCV polymerase activity, list of compounds of Example 27, read-out: IC50 (polymerase activity).
Setting [2] is: related polymerase activity (Example 27 list), read-out: IC50.

Read-outs that look alike come from different tables or passages of the source.

One may read the IC50 as the point on the concentration scale where inhibition reaches its midpoint.

Chain of recombinant HCV NS5B (HCV RNA-dependent RNA polymerase) (P26663 2420-3010 limits assumed): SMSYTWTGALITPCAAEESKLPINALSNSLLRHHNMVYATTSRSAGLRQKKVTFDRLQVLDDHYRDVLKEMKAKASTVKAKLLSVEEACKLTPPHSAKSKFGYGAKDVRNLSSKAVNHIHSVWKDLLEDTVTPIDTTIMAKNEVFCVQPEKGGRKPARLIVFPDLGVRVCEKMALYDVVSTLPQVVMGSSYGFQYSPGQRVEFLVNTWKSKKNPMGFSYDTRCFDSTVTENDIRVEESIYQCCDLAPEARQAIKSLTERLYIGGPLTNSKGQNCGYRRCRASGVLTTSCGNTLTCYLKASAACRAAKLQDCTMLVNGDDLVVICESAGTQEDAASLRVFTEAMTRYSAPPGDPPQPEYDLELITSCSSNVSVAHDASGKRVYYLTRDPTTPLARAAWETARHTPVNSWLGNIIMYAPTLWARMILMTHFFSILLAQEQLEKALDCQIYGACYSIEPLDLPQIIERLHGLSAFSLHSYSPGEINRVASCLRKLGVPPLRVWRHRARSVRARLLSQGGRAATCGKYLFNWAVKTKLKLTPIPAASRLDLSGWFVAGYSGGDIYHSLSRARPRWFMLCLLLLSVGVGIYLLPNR

For `O=C(O)c1sc(-c2ccccc2)cc1N(C(=O)c1ccc(Cl)cc1Cl)C1CCCC[C@@H]1O` (stereo in doubt) [Compound 538, 3-[(2,4-DICHLORO-BENZOYL)-(2- HYDROXY-CYCLOHEXYL)-AMINO]-5- PHENYL-THIOPHENE-2-CARBOXYLIC ACID], the IC50 under setting [1] is < 5 µM. Same read-out and setting: the value for `O=C(O)c1sc(-c2ccccc2)cc1N(C(=O)c1ccc(Cl)cc1Cl)C1CC[C@@H](C(=O)O)C1` (stereo in doubt) [Compound 547, 3-[(3-CARBOXY-CYCLOPENTYL)-(2,4- DICHLORO-BENZOYL)-AMINO]-5- PHENYL-THIOPHENE-2-CARBOXYLIC ACID] was < 5 µM. Take `CC([C@H](O[Si](C)(C)C(C)(C)C)c1ccccc1)N(C(=O)c1ccc(Cl)cc1Cl)c1cc(-c2ccccc2)sc1C(=O)O` (stereo in doubt) [Compound 556, 3-[[2-(TERT-BUTYL-DIMETHYL- SILANYLOXY)-1-METHYL-2-PHENYL- ETHYL]-(2,4-DICHLORO-BENZOYL)- AMINO]-5-PHENYL-THIOPHENE-2- CARBOXYLIC ACID]: under setting [1], the IC50 lay within 5 to 20 µM. As to `Cc1cc(S(=O)(=O)N(Cc2cccc(I)c2)c2cc(-c3ccccc3)sc2C(=O)O)c(C)cc1Cl` [Compound 1, 3-[(4-CHLORO-2,5-DIMETHYL-BENZENESULFONYL)-(3-IODO-BENZYL)-AMINO]-5-PHENYL-THIOPHENE-2-CARBOXYLIC ACID], the IC50 under setting [2] fell in the range of 5 to 20 µM.

With `Cc1cc(S(=O)(=O)N(Cc2cccc(-c3cc4ccccc4o3)c2)c2cc(-c3ccccc3)sc2C(=O)O)c(C)cc1Cl` [Compound 2, 3-[(3-BENZOFURAN-2-YL-BENZYL)-(4-CHLORO-2,5-DIMETHYL-BENZENESULFONYL)-AMINO]-5-PHENYL-THIOPHENE-2-CARBOXYLIC ACID], the IC50 under setting [2] is 5 to 20 µM. Take `Cc1cc(S(=O)(=O)Nc2cc(-c3ccccc3)sc2C(=O)O)c(C)cc1Cl` [Compound 3, 3-(4-CHLORO-2,5-DIMETHYL-BENZENESULFONYLAMINO)-5-PHENYL-THIOPHENE-2-CARBOXYLIC ACID]: the IC50 under setting [2] fell in the range of 5 to 20 µM. Same read-out and setting: the value for `O=C(O)c1sc(-c2ccccc2)cc1N(Cc1ccc(-c2cccc(C(F)(F)F)c2)o1)C(=O)c1ccc(Cl)cc1Cl` [Compound 4, 3-{(2,4-DICHLORO-BENZOYL)-[5-(3-TRIFLUOROMETHYL-PHENYL)-FURAN-2-YLMETHYL]-AMINO}-5-PHENYL-THIOPHENE-2-CARBOXYLIC ACID] was < 5 µM; that for `Cc1cc(S(=O)(=O)N(C)c2cc(-c3ccccc3)sc2C(=O)O)c(C)cc1Cl` [Compound 5, 3-[(4-CHLORO-2,5-DIMETHYL-BENZENESULFONYL)-METHYL-AMINO]-5-PHENYL-THIOPHENE-2-CARBOXYLIC ACID] was 5 to 20 µM.

`Cc1ccc(S(=O)(=O)Nc2cc(-c3ccc(F)cc3)sc2C(=O)O)cc1` [Compound 6, 5-(4-FLUORO-PHENYL)-3-(TOLUENE-4-SULFONYLAMINO)-THIOPHENE-2-CARBOXYLIC ACID]: the IC50 under setting [2] is < 5 µM. On the same count and under the same terms, the value for `O=C(O)c1sc(-c2ccccc2)cc1NS(=O)(=O)c1ccc(Cl)cc1Cl` [Compound 7, 3-(2,4-DICHLORO-BENZENESULFONYLAMINO)-5-PHENYL-THIOPHENE-2-CARBOXYLIC ACID] was < 5 µM; that for `Cc1cc(S(=O)(=O)Nc2cc(-c3ccc(F)cc3)sc2C(=O)O)c(C)cc1Cl` [Compound 8, 3-(4-CHLORO-2,5-DIMETHYL-BENZENESULFONYLAMINO)-5-(4-FLUORO-PHENYL)-THIOPHENE-2-CARBOXYLIC ACID] was < 5 µM; that for `CN(C(=O)c1ccc(Cl)cc1Cl)c1cc(-c2ccccc2)sc1C(=O)O` [Compound 9, 3-[(2,4-DICHLORO-BENZOYL)-METHYL-AMINO]-5-PHENYL-THIOPHENE-2-CARBOXYLIC ACID] was < 5 µM. The same measure, in the same setting: the value for `CC(C)(C)c1cc(NS(=O)(=O)c2ccc(Cl)cc2)c(C(=O)O)s1` [Compound 10, 5-TERT-BUTYL-3-(4-CHLORO-BENZENESULFONYLAMINO)-THIOPHENE-2-CARBOXYLIC ACID] was < 5 µM; that for `Cc1ccc(S(=O)(=O)Nc2cc(-c3ccsc3)sc2C(=O)O)cc1` [Compound 11, 4-(TOLUENE-4-SULFONYLAMINO)-[2,3′]BITHIOPHENYL-5-CARBOXYLIC ACID] was 5 to 20 µM; that for `O=C(O)c1sc(-c2ccccc2)cc1N(Cc1ccc(-c2cc3ccccc3o2)s1)C(=O)c1ccc(Cl)cc1Cl` [Compound 12, 3-[(5-BENZOFURAN-2-YL-THIOPHEN-2-YLMETHYL)-(2,4-DICHLORO-BENZOYL)-AMINO]-5-PHENYL-THIOPHENE-2-CARBOXYLIC ACID] was 5 to 20 µM. The same measure, in the same setting: the value for `Cc1ccc(S(=O)(=O)Nc2cc(-c3ccccc3)sc2C(=O)O)cc1` [Compound 13, 5-PHENYL-3-(TOLUENE-4-SULFONYLAMINO)-THIOPHENE-2-CARBOXYLIC ACID] was < 5 µM; that for `Cc1ccccc1S(=O)(=O)Nc1cc(-c2ccccc2)sc1C(=O)O` [Compound 15, 5-PHENYL-3-(TOLUENE-2-SULFONYLAMINO)-THIOPHENE-2-CARBOXYLIC ACID] was > 20 µM. As to `Cc1cccc(S(=O)(=O)Nc2cc(-c3ccccc3)sc2C(=O)O)c1` [Compound 16, 5-PHENYL-3-(TOLUENE-3-SULFONYLAMINO)-THIOPHENE-2-CARBOXYLIC ACID], the IC50 under setting [2] fell in the range of 5 to 20 µM. Same read-out and setting: the value for `O=C(O)c1sc(-c2ccccc2)cc1NS(=O)(=O)c1ccccc1` [Compound 17, 3-BENZENESULFONYLAMINO-5-PHENYL-THIOPHENE-2-CARBOXYLIC ACID] was 5 to 20 µM; that for `O=C(O)c1sc(-c2ccccc2)cc1NS(=O)(=O)c1ccc(Cl)cc1` [Compound 18, 3-(4-CHLORO-BENZENESULFONYLAMINO)-5-PHENYL-THIOPHENE-2-CARBOXYLIC ACID] was < 5 µM; that for `Cc1ccc(C)c(S(=O)(=O)Nc2cc(-c3ccccc3)sc2C(=O)O)c1` [Compound 21, 3-(2,5-DIMETHYL-BENZENESULFONYLAMINO)-5-PHENYL-THIOPHENE-2-CARBOXYLIC ACID] was 5 to 20 µM. Take `COc1cc(C)c(S(=O)(=O)Nc2cc(-c3ccccc3)sc2C(=O)O)c(C)c1C` [Compound 22, 3-(4-METHOXY-2,3,6-TRIMETHYL-BENZENESULFONYLAMINO)-5-PHENYL-THIOPHENE-2-CARBOXYLIC ACID]: the IC50 under setting [2] was < 5 µM. Same read-out and setting: the value for `O=C(O)c1sc(-c2ccccc2)cc1NS(=O)(=O)c1cccs1` [Compound 23, 5-PHENYL-3-(THIOPHENE-2-SULFONYLAMINO)-THIOPHENE-2-CARBOXYLIC ACID] was < 5 µM. Still for that read-out and setting: the value for `O=C(O)c1sc(-c2ccccc2)cc1NS(=O)(=O)c1ccc(F)cc1F` [Compound 27, 3-(2,4-DIFLUORO-BENZENESULFONYLAMINO)-5-PHENYL-THIOPHENE-2-CARBOXYLIC ACID] was < 5 µM. As for `O=C(Nc1cc(Cl)nc(Cl)c1)Nc1cc(-c2ccccc2)sc1C(=O)O` [Compound 28, 3-[3-(2,6-DICHLORO-PYRIDIN-4-YL)-UREIDO]-5-PHENYL-THIOPHENE-2-CARBOXYLIC ACID], under setting [2], the 50% inhibitory concentration (IC50) was < 5 µM. Same read-out and setting: the value for `O=C(O)c1sc(-c2ccccc2)cc1NS(=O)(=O)c1ccccc1Cl` [Compound 29, 3-(2-CHLORO-BENZENESULFONYLAMINO)-5-PHENYL-THIOPHENE-2-CARBOXYLIC ACID] was 5 to 20 µM; that for `O=C(O)c1sc(-c2ccccc2)cc1NS(=O)(=O)c1ccccc1F` [Compound 30, 3-(2-FLUORO-BENZENESULFONYLAMINO)-5-PHENYL-THIOPHENE-2-CARBOXYLIC ACID] was 5 to 20 µM. Same read-out and setting: the value for `O=C(O)c1sc(-c2ccccc2)cc1NS(=O)(=O)c1ccccc1OC(F)(F)F` [Compound 31, 5-PHENYL-3-(2-TRIFLUOROMETHOXY-BENZENESULFONYLAMINO)-THIOPHENE-2-CARBOXYLIC ACID] was > 20 µM. Take `CC(C)(C)c1ccc(S(=O)(=O)Nc2cc(-c3ccccc3)sc2C(=O)O)cc1` [Compound 32, 3-(4-TERT-BUTYL-BENZENESULFONYLAMINO)-5-PHENYL-THIOPHENE-2-CARBOXYLIC ACID]: under setting [2], the 50% inhibitory concentration (IC50) was in the range of 5 to 20 µM. Same read-out and setting: the value for `O=C(Nc1cc(-c2ccccc2)sc1C(=O)O)Oc1ccc(Cl)cc1` [Compound 33, 3-(4-CHLORO-PHENOXYCARBONYLAMINO)-5-PHENYL-THIOPHENE-2-CARBOXYLIC ACID] was 5 to 20 µM; that for `O=C(O)c1sc(-c2ccccc2)cc1NS(=O)(=O)c1ccc(Cl)c(Cl)c1` [Compound 34, 3-(3,4-DICHLORO-BENZENESULFONYLAMINO)-5-PHENYL-THIOPHENE-2-CARBOXYLIC ACID] was 5 to 20 µM; that for `O=C(O)c1sc(-c2ccccc2)cc1NS(=O)(=O)c1ccccc1C(F)(F)F` [Compound 35, 5-PHENYL-3-(2-TRIFLUOROMETHYL-BENZENESULFONYLAMINO)-THIOPHENE-2-CARBOXYLIC ACID] was > 20 µM. Consider `O=C(O)c1sc(-c2ccccc2)cc1NS(=O)(=O)c1cnc(Cl)c(Br)c1` [Compound 36, 3-(5-BROMO-6-CHLORO-PYRIDINE-3-SULFONYLAMINO)-5-PHENYL-THIOPHENE-2-CARBOXYLIC ACID], for which the 50% inhibitory concentration (IC50) under setting [2] is > 20 µM. Turning to `O=C(O)c1sc(-c2ccccc2)cc1NS(=O)(=O)c1ccc(Cl)s1` [Compound 37, 3-(5-CHLORO-THIOPHENE-2-SULFONYLAMINO)-5-PHENYL-THIOPHENE-2-CARBOXYLIC ACID], under setting [2], the IC50 was < 5 µM. On the same count and under the same terms, the value for `Cc1c(S(=O)(=O)Nc2cc(-c3ccccc3)sc2C(=O)O)sc2ccc(Cl)cc12` [Compound 38, 3-(5-CHLORO-3-METHYL-BENZO[ B ]THIOPHENE-2-SULFONYLAMINO)-5-PHENYL-THIOPHENE-2-CARBOXYLIC ACID] was < 5 µM; that for `O=C(O)c1sc(-c2ccccc2)cc1NS(=O)(=O)c1ccc(Br)cc1` [Compound 39, 3-(4-BROMO-BENZENESULFONYLAMINO)-5-PHENYL-THIOPHENE-2-CARBOXYLIC ACID] was < 5 µM.

On to `O=C(O)c1sc(-c2ccccc2)cc1NS(=O)(=O)c1cccc(Cl)c1` [Compound 40, 3-(3-CHLORO-BENZENESULFONYLAMINO)-5-PHENYL-THIOPHENE-2-CARBOXYLIC ACID], for which the IC50 under setting [2] is < 5 µM. The same measure, in the same setting: the value for `Cc1nn(C)c(Cl)c1S(=O)(=O)Nc1cc(-c2ccccc2)sc1C(=O)O` [Compound 41, 3-(5-CHLORO-1,3-DIMETHYL-1H-PYRAZOLE-4-SULFONYLAMINO)-5-PHENYL-THIOPHENE-2-CARBOXYLIC ACID] was 5 to 20 µM.
